Results as given in patent USRE48097E1, “Cephem compounds, their production and use” (priority 2015, dated 2020).
≈ marks a conversion by molar mass, not a printed value. Where two headings read alike, the source gives them in different places.

What was measured:
Format in all cases: cell-based
K. pneumoniae 2712 = experiment: MIC against K. pneumoniae 2712; details: Table 3, K. pneumoniae 2712, KPC-3, VIM-1
Description: (§1) As shown, the foregoing composition was tested for minimum inhibitory concentration (MIC, μg/mL) against bacteria listed in Tables 2-3.

S. aureus 3136 = experiment: MIC against S. aureus 3136; details: Table 2, S. aureus 3136, MSSA
Summary of the method: (§2)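 MIC (μg/mL); cephem alone or + β-lactamase inhibitor (e.g. NXL-104); ceftazidime reference.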

E. cloacae 2710 = experiment: MIC against E. cloacae 2710; details: Table 3, E. cloacae 2710, KPC-3, VIM-1
Description: as §1

M. morganii 2409 = experiment: MIC against M. morganii 2409; details: Table 2, M. morganii 2409, High level cephase, β-Lactamase producing
Summary of the method: as §2

K. pneumoniae 4105 = experiment: MIC against K. pneumoniae 4105; details: K. pneumoniae 4105, KPC-3, TEM-1, SHV-11
Description: as §1

S. aureus 3147 = experiment: MIC against S. aureus 3147; details: Table 2, S. aureus 3147, MSSA
Summary of the method: as §2

E. cloacae 2705 = experiment: MIC against E. cloacae 2705; details: Table 3, E. cloacae 2705, VIM-1, KPC-3type
Description: as §1

S. pneumoniae ATCC 6301 = experiment: MIC against S. pneumoniae ATCC 6301; details: Table 2, S. pneumoniae ATCC 6301, Pen S
Summary of the method: as §2

S. pneumoniae 2405 = experiment: MIC against S. pneumoniae 2405; details: Table 2, S. pneumoniae 2405, Pen S
Summary of the method: as §2

S. pneumoniae 2492 = experiment: MIC against S. pneumoniae 2492; details: Table 2, S. pneumoniae 2492, Pen R
Summary of the method: as §2

E. coli 4080 = experiment: MIC against E. coli 4080; details: Table 2, E. coli 4080, TEM-10
Summary of the method: as §2

S. pneumoniae 2404 = experiment: MIC against S. pneumoniae 2404; details: Table 2, S. pneumoniae 2404, Pen S
Summary of the method: as §2

E. coli 4098 = experiment: MIC against E. coli 4098; details: Table 2, E. coli 4098, CTX-M-15, TEM-1
Summary of the method: as §2

S. aureus 3144 = experiment: MIC against S. aureus 3144; details: Table 2, S. aureus 3144, MSSA
Summary of the method: as §2

C. freundii 2003 = experiment: MIC against C. freundii 2003; details: Table 2, C. freundii 2003, Caz R, IMP S
Summary of the method: as §2

E. coli 4102 = experiment: MIC against E. coli 4102; details: Table 2, E. coli 4102, CTX-M-14
Summary of the method: as §2

K. pneumoniae 2690 = experiment: MIC against K. pneumoniae 2690; details: Table 3, K. pneumoniae 2690, KPC-2
Description: as §1

K. baumanii 2579 = experiment: MIC against K. baumanii 2579; details: Table 2, K. baumanii 2579, OXA-25
Summary of the method: as §2

K. pneumoniae 2711 = experiment: MIC against K. pneumoniae 2711; details: Table 3, K. pneumoniae 2711, KPC-3, VIM-1
Description: as §1

C. freundii 579 = experiment: MIC against C. freundii 579; details: Table 2, C. freundii 579, Caz R, IMP S
Summary of the method: as §2

C. freundii 580 = experiment: MIC against C. freundii 580; details: Table 2, C. freundii 580, Caz R, IMP S
Summary of the method: as §2

K. pneumoniae 4108 = experiment: MIC against K. pneumoniae 4108; details: K. pneumoniae 4108, KPC-3, TEM-166, SHV-12, SHV-141
Description: as §1

E. cloacae 566 = experiment: MIC against E. cloacae 566; details: Table 2, E. cloacae 566, Caz R, IMP S
Summary of the method: as §2

[1] = Klebsiella pneumoniae, alone, read-out: MIC
[2] = Staphylococcus aureus, alone, read-out: MIC
[3] = Enterobacter cloacae, alone, read-out: MIC
[4] = Table 2, in combination with NXL-104
[5] = Table 3, in combination with NXL-104
[6] = Streptococcus pneumoniae, alone, read-out: MIC
[7] = Escherichia coli, alone, read-out: MIC
[8] = Citrobacter freundii, alone, read-out: MIC

In the case of `CC(C)(O/N=C(\C(=O)N[C@@H]1C(=O)N2C(C(=O)[O-])=C(C[n+]3ccc4c(ccn4Cc4cc(C(=N)N)co4)c3)CS[C@H]12)c1csc(N)n1)C(=O)O` [Example 6, (6R,7R)-7-{[(2Z)-2-(2-Amino-1,3-thiazol-4-yl)-2-{[(2-carboxypropan-2-yl)oxy]imino}acetyl]amino}-3-({1-[(4-carbamimidoylfuran-2-yl)methyl]-1H-pyrrolo[3,2-c]pyridin-5-ium-5-yl}methyl)-8-oxo-5-thia-1-azabicyclo[4.2.0]oct-2-ene-2-carboxylate], the MIC (K. pneumoniae 2712; [1]) is reported as over 32 µg/mL, the MIC (K. pneumoniae 2712; in combination with NXL-104) is reported as 4 µg/mL and the MIC (S. aureus 3136; [2]) is reported as 4 µg/mL. It also gave an MIC (S. aureus 3136; in combination with NXL-104) of 4.00 µg/mL, an MIC (E. cloacae 2710; [3]) of over 32 µg/mL and an MIC (E. cloacae 2710; in combination with NXL-104) of over 32 µg/mL. The MIC (M. morganii 2409; Morganella morganii, alone, read-out: MIC) was 16 µg/mL, the MIC (M. morganii 2409; in combination with NXL-104) was 1.00 µg/mL and the MIC (K. pneumoniae 4105; Klebsiella pneumoniae, 4105, Table 2, alone, read-out: MIC) was 32 µg/mL (≈ 45.2 µM). For the same molecule, the MIC (K. pneumoniae 4105; Klebsiella pneumoniae, 4105, Table 3, alone, read-out: MIC) was 32 µg/mL (≈ 45.2 µM), the MIC (K. pneumoniae 4105; [4]) was 1.00 µg/mL and the MIC (K. pneumoniae 4105; [5]) was 2 µg/mL. It also gave an MIC (S. aureus 3147; [2]) of 4 µg/mL, an MIC (S. aureus 3147; in combination with NXL-104) of 4.00 µg/mL and an MIC (E. cloacae 2705; [3]) of over 32 µg/mL. It also gave an MIC (E. cloacae 2705; in combination with NXL-104) of over 32 µg/mL, an MIC (S. pneumoniae ATCC 6301; Streptococcus pneumoniae, ATCC6301, alone, read-out: MIC) of at most 0.06 µg/mL and an MIC (S. pneumoniae ATCC 6301; in combination with NXL-104) of at most 0.06 µg/mL. It also gave an MIC (S. pneumoniae 2405; [6]) of at most 0.06 µg/mL, an MIC (S. pneumoniae 2405; in combination with NXL-104) of at most 0.06 µg/mL and an MIC (S. pneumoniae 2492; [6]) of 2 µg/mL. It also gave an MIC (S. pneumoniae 2492; in combination with NXL-104) of 2.00 µg/mL, an MIC (E. coli 4080; [7]) of 16 µg/mL and an MIC (E. coli 4080; in combination with NXL-104) of 0.50 µg/mL. The MIC (S. pneumoniae 2404; [6]) was at most 0.06 µg/mL, the MIC (S. pneumoniae 2404; in combination with NXL-104) was at most 0.06 µg/mL and the MIC (E. coli 4098; [7]) was 32 µg/mL. For the same molecule, the MIC (E. coli 4098; in combination with NXL-104) was 0.12 µg/mL, the MIC (S. aureus 3144; [2]) was 8 µg/mL and the MIC (S. aureus 3144; in combination with NXL-104) was 8.00 µg/mL. For the same molecule, the MIC (C. freundii 2003; [8]) was 4 µg/mL, the MIC (C. freundii 2003; in combination with NXL-104) was 0.50 µg/mL and the MIC (E. coli 4102; [7]) was 2 µg/mL. It also gave an MIC (E. coli 4102; in combination with NXL-104) of 0.12 µg/mL, an MIC (K. pneumoniae 2690; [1]) of 16 µg/mL (≈ 22.6 µM) and an MIC (K. pneumoniae 2690; in combination with NXL-104) of 1 µg/mL. For the same molecule, the MIC (K. baumanii 2579; alone, read-out: MIC) was over 32 µg/mL, the MIC (K. baumanii 2579; in combination with NXL-104) was 16.00 µg/mL and the MIC (K. pneumoniae 2711; [1]) was 4 µg/mL (≈ 5.65 µM). For the same molecule, the MIC (K. pneumoniae 2711; in combination with NXL-104) was 0.5 µg/mL, the MIC (C. freundii 579; [8]) was 2 µg/mL and the MIC (C. freundii 579; in combination with NXL-104) was 0.25 µg/mL. The MIC (C. freundii 580; [8]) was 4 µg/mL, the MIC (C. freundii 580; in combination with NXL-104) was 0.25 µg/mL and the MIC (K. pneumoniae 4108; Klebsiella pneumoniae, 4108, Table 2, alone, read-out: MIC) was 16 µg/mL (≈ 22.6 µM). The MIC (K. pneumoniae 4108; Klebsiella pneumoniae, 4108, Table 3, alone, read-out: MIC) was 32 µg/mL (≈ 45.2 µM), the MIC (K. pneumoniae 4108; [4]) was 0.50 µg/mL and the MIC (K. pneumoniae 4108; [5]) was 1 µg/mL. It also gave an MIC (E. cloacae 566; [3]) of 4 µg/mL and an MIC (E. cloacae 566; in combination with NXL-104) of 0.50 µg/mL.
